# In patent EP4603105A1, “PHARMACEUTICAL COMPOSITION CONTAINING CYCLIC COMPOUND HAVING SELECTIVE KRAS INHIBITORY EFFECT AGAINST HRAS AND NRAS” (CHUGAI SEIYAKU KABUSHIKI KAISHA, priority 2022, dated 2024):
# Where a SMILES comes first, the peptide text is derived from it. Bridges are numbered along the chain shown (N, C = ends). [ ]: non-standard residue; d: D form. The star is where a group is joined. hPhe(3,5-F2-4-CF3) = N[C@@H](CCc1cc(F)c(C(F)(F)F)c(F)c1)C(=O)O; hPhe(3-Cl-4-CF3) = N[C@@H](CCc1ccc(C(F)(F)F)c(Cl)c1)C(=O)O; NPrPhe(4-CF3) = CCCN[C@@H](Cc1ccc(C(F)(F)F)cc1)C(=O)O; NMeGly(cPent) = CN[C@H](C(=O)O)C1CCCC1; Pro(4,4-F2) = O=C(O)[C@@H]1CC(F)(F)CN1; Pro(4S-Me) = C[C@@H]1CN[C@H](C(=O)O)C1; NMeD = CN[C@@H](CC(=O)O)C(=O)O; NMeL = CN[C@@H](CC(C)C)C(=O)O; αMeL = CC(C)C[C@](C)(N)C(=O)O; αMeS = C[C@](N)(CO)C(=O)O; Morpholide = C1CN(*)CCO1; NMeA = CN[C@@H](C)C(=O)O; Ac5c = NC1(C(=O)O)CCCC1; Aze = O=C(O)[C@@H]1CCN1; Sar = CNCC(=O)O; Allyl = C=CC*
# How the values were obtained:
# [1] = target: GDP-bound NRAS wild-type protein (Homo sapiens, UniProt P01111); assay: Binding to NRAS by surface plasmon resonance (SPR), KD and KD ratio to KRAS
# Outline: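 GDP-loaded biotinylated Avi-tag RAS proteins (E. coli-expressed) captured on a Biotin CAPture chip at ~100–300 RU; single-cycle kinetics at 30°C, 100 µL/min, 75 s injections of rising compound concentrations. HBS pH 7.4 running buffer with 1 mM DTT, 10 mM MgCl2, 10 µM GDP, 4% DMSO. KD from 1:1 binding fit.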
# HRAS wild-type protein = HRAS wild-type protein (Homo sapiens, UniProt P01112); assay: Binding to HRAS by surface plasmon resonance (SPR), KD and KD ratio to KRAS
# Description: Surface plasmon resonance was used to analyze the binding affinity of compounds for KRAS, NRAS, and HRAS. The apparatus used was Biacore 8K, 8K+, or T200 (GE Healthcare), and the running buffer used was HBS (10 mM HEPES-NaOH, 150 mM NaCl, pH 7.4) containing 1 mM DTT, 10 mM MgCl2, 0.01% Tween 20, 10 µM GDP, and 4% DMSO.
# Biotinylated Avi-tag fusion KRAS, NRAS, and HRAS proteins were expressed in E. coli BL21 (DE3) strains, and after cells were homogenized, they were purified using Streptavidin Mutein Matrix and Superdex 75. After purification, GDP-loaded KRAS, NRAS, and HRAS proteins were immobilized on the surface of Sensor Chip CAP (Cytiva) coated with Biotin CAPture Reagent in an immobilization amount of about 100 to 300 RU. Binding of each compound was evaluated by the Single Cycle Kinetics method, and a running buffer or a compound solution was added to the RAS protein non-immobilized surface and the immobilized surface to obtain a binding response. The flow rate was set to 100 µL/min, and in the compound-adding cycle, compound solutions having different concentrations were intermittently added for 75 seconds each, starting from a low concentration. […] In the blank cycle, a running buffer was intermittently added and not the compound solution. The Biotin CAPture Reagent and RAS proteins were immobilized for each cycle, and at the end of each cycle, the sensor chip was regenerated by the regeneration solution appended to the Biotin CAPture Kit (Cytiva). Measurement was carried out at 30°C.
# The resulting sensorgram was subjected to curve fitting based on a 1:1 binding model on Biacore Insight Evaluation Software or T200 Evaluation Software, and thereby the dissociation constant KD of each compound with respect to KRAS, NRAS, and HRAS was determined. […] Blank indicates a compound from which the KD value with respect to NRAS or HRAS was not obtained.
# [2] = tested on: human lung cancer strain NCI-H441; type: cell-based
# Outline: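 Readout: […] after the ATP-based reagent. Compound: serial dilutions in dimethyl sulfoxide.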
# [3] = ratio of the KD value with respect to GDP-bound NRAS wild-type protein to the KD value with respect to KRAS
# [4] = ratio of the KD value with respect to HRAS wild-type protein to the KD value with respect to KRAS
# [5] = ratio of KD for GDP-bound NRAS wild-type protein to KD for KRAS
# [6] = ratio of KD for HRAS wild-type protein to KD for KRAS
# [7] = ratio of KD value for GDP-bound NRAS wild-type protein to KD value for KRAS (SPR)
# [8] = ratio of KD value for HRAS wild-type protein to KD value for KRAS (SPR)
# Sequence of HRAS wild-type protein (P01112 whole entry): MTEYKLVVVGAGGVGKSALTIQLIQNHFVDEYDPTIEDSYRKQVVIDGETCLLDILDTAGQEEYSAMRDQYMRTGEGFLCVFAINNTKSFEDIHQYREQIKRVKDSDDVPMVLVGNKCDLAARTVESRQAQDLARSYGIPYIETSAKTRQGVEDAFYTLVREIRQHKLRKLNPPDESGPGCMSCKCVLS
# Sequence of GDP-bound NRAS wild-type protein (P01111 whole entry): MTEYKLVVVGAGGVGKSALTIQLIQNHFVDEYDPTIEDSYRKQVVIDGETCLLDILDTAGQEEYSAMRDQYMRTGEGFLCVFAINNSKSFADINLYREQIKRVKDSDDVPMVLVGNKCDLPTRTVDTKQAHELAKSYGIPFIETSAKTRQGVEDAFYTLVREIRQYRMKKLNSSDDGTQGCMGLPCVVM
SMILES,IC50 [2],"NRAS /KRAS [1, 3]",HRAS /KRAS (HRAS wild-type protein; [4]),"NRAS /KRAS [1, 5]",HRAS /KRAS (HRAS wild-type protein; [6]),"NRAS /KRAS [1, 7]",HRAS /KRAS (HRAS wild-type protein; [8])
"CCCN1C(=O)[C@@H]2CCN2C(=O)CN(C)C(=O)[C@H]([C@@H](C)CC)NC(=O)[C@H](CC(C)C)N(C)C(=O)C[C@@H](C(=O)N2CCOCC2)N(C)C(=O)[C@H](C2CCCC2)N(C)C(=O)[C@](C)(CC(C)C)NC(=O)[C@@H]2CCCN2C(=O)[C@H](CCc2cc(F)c(C(F)(F)F)c(F)c2)NC(=O)CN(C)C(=O)[C@@H]1Cc1ccc(C(F)(F)F)cc1 [PP0795] ([NMeL]I[Sar][Aze][NPrPhe(4-CF3)][Sar][hPhe(3,5-F2-4-CF3)]P[αMeL][NMeGly(cPent)][NMeD]-Morpholide; lactam N-11)",356 nM,,,C (A compound having a KD ratio of 0.1 or more and less than 3 is denoted as C),B (a compound having 3 or more and less than 10 is denoted as B),,
CCO[C@@H]1C[C@H]2C(=O)NC3(CCC3)C(=O)N(C)[C@@H](C3CCCC3)C(=O)N(C)[C@H](C(=O)N(C)C)CC(=O)N(CC)[C@@H](CC(C)C)C(=O)N[C@@H]([C@@H](C)CC)C(=O)N(C)CC(=O)N(C)[C@H]3C/C=C\CCN(C3=O)[C@@H](Cc3ccc(C(F)(F)F)cc3)C(=O)N(C)CC(=O)N[C@@H](CCc3cc(F)c(C(F)(F)F)c(F)c3)C(=O)N2C1 [PP1765],16.8 nM,,,,,A (a compound having 10 or more and less than 20 is denoted as A),A (a compound having 10 or more and less than 20 is denoted as A)
"CCCN1C(=O)CN(C)C(=O)CNC(=O)[C@H]([C@@H](C)CC)NC(=O)[C@H](CC(C)C)N(C)C(=O)C[C@@H](C(=O)N(C)C)NC(=O)[C@H](C2CCCC2)N(C)C(=O)C2(CCCC2)NC(=O)[C@@H]2CC(F)(F)CN2C(=O)[C@H](CCc2ccc(C(F)(F)F)c(Cl)c2)NC(=O)CN(C)C(=O)[C@@H]1Cc1ccc(C(F)(F)F)cc1 [PP0363] ([NMeL]IG[Sar][NPrPhe(4-CF3)][Sar][hPhe(3-Cl-4-CF3)][Pro(4,4-F2)][Ac5c][NMeGly(cPent)]D-NMe2; lactam N-11)",91.4 nM,,,B (a compound having 3 or more and less than 10 is denoted as B),C (A compound having a KD ratio of 0.1 or more and less than 3 is denoted as C),,
CCO[C@@H]1C[C@H]2C(=O)NC3(CCC3)C(=O)N(C)[C@@H](C(CC)CC)C(=O)N(C)[C@H](CC)CC(=O)N(C)[C@@H](CC)C(=O)N[C@@H]([C@@H](C)CC)C(=O)N(C)CC(=O)N(C)[C@H]3C/C=C\CCN(C3=O)[C@@H](Cc3ccc(C(F)(F)F)cc3)C(=O)N(C)CC(=O)N[C@@H](CCc3cc(F)c(C(F)(F)F)c(F)c3)C(=O)N2C1 [PP1624],55.8 nM,,,,,A (a compound having 10 or more and less than 20 is denoted as A),A (a compound having 10 or more and less than 20 is denoted as A)
"CCCN1C(=O)[C@@H]2CCN2C(=O)[C@H](C)N(C)C(=O)[C@H]([C@@H](C)CC)NC(=O)[C@H](CC(C)C)N(C)C(=O)C[C@@H](C(=O)N(C)C)NC(=O)[C@H](C2CCCC2)N(C)C(=O)C2(CCCC2)NC(=O)[C@@H]2CC(F)(F)CN2C(=O)[C@H](CCc2ccc(C(F)(F)F)c(Cl)c2)NC(=O)CN(C)C(=O)[C@@H]1Cc1ccc(C(F)(F)F)cc1 [PP0381] ([NMeL]I[NMeA][Aze][NPrPhe(4-CF3)][Sar][hPhe(3-Cl-4-CF3)][Pro(4,4-F2)][Ac5c][NMeGly(cPent)]D-NMe2; lactam N-11)",11.1 nM,,,C (A compound having a KD ratio of 0.1 or more and less than 3 is denoted as C),B (a compound having 3 or more and less than 10 is denoted as B),,
CCCN(C)C(=O)[C@@H]1CC(=O)N(C)[C@@H](CC(C)C)C(=O)N[C@@H](C2CCOCC2)C(=O)N(C)CC(=O)N(C)[C@H]2C/C=C\CCN(C2=O)[C@@H](Cc2ccc(C(F)(F)F)cc2)C(=O)N(C)CC(=O)N[C@@H](CCc2cc(F)c(C(F)(F)F)c(F)c2)C(=O)N2C[C@H](OCC)C[C@H]2C(=O)NC2(CC(C)(C)C2)C(=O)N(C)[C@@H](C2CCCC2)C(=O)N1C [PP1923],68 nM,A (a compound having 10 or more and less than 20 is denoted as A),A (a compound having 10 or more and less than 20 is denoted as A),,,,
"C=CCOC[C@]1(C)NC(=O)[C@@H]2CCCN2C(=O)[C@H](CCc2cc(F)c(C(F)(F)F)c(F)c2)NC(=O)CN(C)C(=O)[C@H](Cc2ccc(C(F)(F)F)cc2)N(CCC)C(=O)CN(C)C(=O)CN(C)C(=O)[C@H]([C@@H](C)CC)NC(=O)[C@H](CC(C)C)N(C)C(=O)C[C@@H](C(=O)N(C)C)N(C)C(=O)[C@H](C2CCCC2)N(C)C1=O [PP0742] ([NMeL]I[Sar][Sar][NPrPhe(4-CF3)][Sar][hPhe(3,5-F2-4-CF3)]P[αMeS](Allyl)[NMeGly(cPent)][NMeD]-NMe2; lactam N-11)",73.3 nM,B (a compound having 3 or more and less than 10 is denoted as B),B (a compound having 3 or more and less than 10 is denoted as B),,,,
CCCN1C(=O)[C@@H]2CCN2C(=O)[C@H](C)N(C)C(=O)[C@H]([C@@H](C)CC)NC(=O)[C@H](CC(C)C)N(C)C(=O)C[C@@H](C(=O)N2CCOCC2)N(C)C(=O)[C@H](C2CCCC2)N(C)C(=O)C2(CCCC2)NC(=O)CN(C)C(=O)[C@H](CCc2ccc(C(F)(F)F)c(Cl)c2)NC(=O)CN(C)C(=O)[C@@H]1Cc1ccc(C(F)(F)F)cc1 [PP0287] ([NMeL]I[NMeA][Aze][NPrPhe(4-CF3)][Sar][hPhe(3-Cl-4-CF3)][Sar][Ac5c][NMeGly(cPent)][NMeD]-Morpholide; lactam N-11),14.5 nM,,,C (A compound having a KD ratio of 0.1 or more and less than 3 is denoted as C),C (A compound having a KD ratio of 0.1 or more and less than 3 is denoted as C),,

# Now those with a lower IC50 [2], led by results:
IC50 [2],SMILES,"NRAS /KRAS [1, 3]",HRAS /KRAS (HRAS wild-type protein; [4]),"NRAS /KRAS [1, 5]",HRAS /KRAS (HRAS wild-type protein; [6]),"NRAS /KRAS [1, 7]",HRAS /KRAS (HRAS wild-type protein; [8])
6.1 nM,C#CC[C@H]1C(=O)N[C@@H]([C@@H](C)CC)C(=O)N(C)CC(=O)N(C)[C@H]2C/C=C\CCN(C2=O)[C@@H](Cc2ccc(C(F)(F)F)cc2)C(=O)N(C)CC(=O)N[C@@H](CCc2ccc(C(F)(F)F)c(OC)c2)C(=O)N2C[C@@H](C)C[C@H]2C(=O)NC2(CCC2)C(=O)N(C)[C@@H](C2CCCC2)C(=O)N(C)[C@H](C(=O)N(C)CC)CC(=O)N1C [PP2061],AA (a compound having 20 or more is denoted as AA),A (a compound having 10 or more and less than 20 is denoted as A),,,,
8.4 nM,C=CCN1CC(=O)N(C)[C@H]2C/C=C\CCN(C2=O)[C@@H](Cc2ccc(C)cc2)C(=O)N(C)CC(=O)N[C@@H](CCc2ccc(C(F)(F)F)c(OC)c2)C(=O)N2C[C@H](OCC)C[C@H]2C(=O)NC2(CC(C)(C)C2)C(=O)N(C)[C@@H](C2CCCC2)C(=O)N(C)[C@H](C(=O)N(C)C)CC(=O)N(C)[C@@H](CCC)C(=O)N[C@@H]([C@@H](C)CC)C1=O [PP2098],A (a compound having 10 or more and less than 20 is denoted as A),A (a compound having 10 or more and less than 20 is denoted as A),,,,
5.3 nM,CCO[C@@H]1C[C@H]2C(=O)NC3(CCCC3)C(=O)N(C)[C@@H](C3CCCC3)C(=O)N(C)[C@H](C(=O)N(C)C)CC(=O)N(C)[C@@H](C)C(=O)N[C@@H]([C@@H](C)CC)C(=O)N(C)CC(=O)N(C)[C@H]3CCCCN(C3=O)[C@@H](Cc3ccc(C(F)(F)F)cc3)C(=O)N(C)CC(=O)N[C@@H](CCc3cc(F)c(C(F)(F)F)c(F)c3)C(=O)N2C1 [PP0586],C (A compound having a KD ratio of 0.1 or more and less than 3 is denoted as C),B (a compound having 3 or more and less than 10 is denoted as B),,,,
3.9 nM,CCCN1C(=O)CN(C)C(=O)CN(C)C(=O)[C@H]([C@@H](C)CC)NC(=O)[C@H](CC(C)C)N(C)C(=O)C[C@@H](C(=O)N2CCOCC2)N(C)C(=O)[C@H](C2CCCC2)N(C)C(=O)C2(CCCC2)NC(=O)[C@@H]2C[C@H](C)CN2C(=O)[C@H](CCc2ccc(C(F)(F)F)c(Cl)c2)NC(=O)CN(C)C(=O)[C@@H]1Cc1ccc(C(F)(F)F)cc1 [PP0447] ([NMeL]I[Sar][Sar][NPrPhe(4-CF3)][Sar][hPhe(3-Cl-4-CF3)][Pro(4S-Me)][Ac5c][NMeGly(cPent)][NMeD]-Morpholide; lactam N-11),B (a compound having 3 or more and less than 10 is denoted as B),C (A compound having a KD ratio of 0.1 or more and less than 3 is denoted as C),,,,
